Experiments:
VEGFR-1 (Flt-1) = VEGFR-1 (Flt-1) (Homo sapiens (Human), UniProt P17948); experiment: Enzymatic activity, VEGFR-1 inhibition in vitro; type: biochemical; details: read-out: Enzymatic Activities IC50 VEGFR-1 (Flt-1) or VGFR1 FLT1
VEGFR-2 KDR = VEGFR-2 KDR (Homo sapiens (Human), UniProt P35968); experiment: Enzymatic activity, VEGFR-2 inhibition in vitro; type: biochemical; details: read-out: Enzymatic Activities IC50 VEGFR-2 KDR or VGFR2 KDR
VEGFR-3 (Flt-4) = VEGFR-3 (Flt-4) (Homo sapiens (Human), UniProt P35916); experiment: Enzymatic activity, VEGFR-3 inhibition in vitro; type: biochemical
[1] = cited from earlier work

VEGFR-1 (Flt-1), sequence (P17948 27-1338): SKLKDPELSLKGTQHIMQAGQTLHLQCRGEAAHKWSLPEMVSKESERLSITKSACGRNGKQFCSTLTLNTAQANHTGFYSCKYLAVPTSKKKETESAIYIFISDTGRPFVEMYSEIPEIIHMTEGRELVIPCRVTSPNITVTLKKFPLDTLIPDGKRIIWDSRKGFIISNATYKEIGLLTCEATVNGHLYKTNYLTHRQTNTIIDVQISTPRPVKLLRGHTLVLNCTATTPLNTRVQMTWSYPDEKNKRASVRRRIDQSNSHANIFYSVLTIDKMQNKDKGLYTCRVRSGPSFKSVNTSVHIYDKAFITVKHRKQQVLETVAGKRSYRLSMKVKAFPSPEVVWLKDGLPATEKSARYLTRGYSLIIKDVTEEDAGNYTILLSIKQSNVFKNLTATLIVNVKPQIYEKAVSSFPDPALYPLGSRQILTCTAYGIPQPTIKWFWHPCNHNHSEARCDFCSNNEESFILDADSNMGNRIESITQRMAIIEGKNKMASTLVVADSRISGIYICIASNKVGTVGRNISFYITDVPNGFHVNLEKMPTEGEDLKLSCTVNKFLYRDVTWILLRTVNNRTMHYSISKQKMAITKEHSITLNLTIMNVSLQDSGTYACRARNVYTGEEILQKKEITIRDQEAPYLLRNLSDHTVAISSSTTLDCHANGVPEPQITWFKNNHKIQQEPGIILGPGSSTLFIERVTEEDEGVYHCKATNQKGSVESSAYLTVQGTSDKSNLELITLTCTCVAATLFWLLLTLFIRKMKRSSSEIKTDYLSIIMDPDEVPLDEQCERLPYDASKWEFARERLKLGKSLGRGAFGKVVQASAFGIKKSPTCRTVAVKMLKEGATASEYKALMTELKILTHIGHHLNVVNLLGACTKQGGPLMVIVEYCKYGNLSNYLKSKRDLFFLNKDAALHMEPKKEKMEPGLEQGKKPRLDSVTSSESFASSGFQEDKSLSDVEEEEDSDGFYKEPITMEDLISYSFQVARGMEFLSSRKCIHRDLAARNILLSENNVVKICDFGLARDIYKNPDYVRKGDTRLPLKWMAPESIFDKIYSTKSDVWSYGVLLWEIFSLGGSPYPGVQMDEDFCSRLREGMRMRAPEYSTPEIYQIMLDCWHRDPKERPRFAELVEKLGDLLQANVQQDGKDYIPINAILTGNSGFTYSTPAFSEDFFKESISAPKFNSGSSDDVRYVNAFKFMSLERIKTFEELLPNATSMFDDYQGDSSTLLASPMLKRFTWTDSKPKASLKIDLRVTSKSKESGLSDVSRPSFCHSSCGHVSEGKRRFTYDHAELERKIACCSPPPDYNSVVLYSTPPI
VEGFR-3 (Flt-4), sequence (P35916 25-1363): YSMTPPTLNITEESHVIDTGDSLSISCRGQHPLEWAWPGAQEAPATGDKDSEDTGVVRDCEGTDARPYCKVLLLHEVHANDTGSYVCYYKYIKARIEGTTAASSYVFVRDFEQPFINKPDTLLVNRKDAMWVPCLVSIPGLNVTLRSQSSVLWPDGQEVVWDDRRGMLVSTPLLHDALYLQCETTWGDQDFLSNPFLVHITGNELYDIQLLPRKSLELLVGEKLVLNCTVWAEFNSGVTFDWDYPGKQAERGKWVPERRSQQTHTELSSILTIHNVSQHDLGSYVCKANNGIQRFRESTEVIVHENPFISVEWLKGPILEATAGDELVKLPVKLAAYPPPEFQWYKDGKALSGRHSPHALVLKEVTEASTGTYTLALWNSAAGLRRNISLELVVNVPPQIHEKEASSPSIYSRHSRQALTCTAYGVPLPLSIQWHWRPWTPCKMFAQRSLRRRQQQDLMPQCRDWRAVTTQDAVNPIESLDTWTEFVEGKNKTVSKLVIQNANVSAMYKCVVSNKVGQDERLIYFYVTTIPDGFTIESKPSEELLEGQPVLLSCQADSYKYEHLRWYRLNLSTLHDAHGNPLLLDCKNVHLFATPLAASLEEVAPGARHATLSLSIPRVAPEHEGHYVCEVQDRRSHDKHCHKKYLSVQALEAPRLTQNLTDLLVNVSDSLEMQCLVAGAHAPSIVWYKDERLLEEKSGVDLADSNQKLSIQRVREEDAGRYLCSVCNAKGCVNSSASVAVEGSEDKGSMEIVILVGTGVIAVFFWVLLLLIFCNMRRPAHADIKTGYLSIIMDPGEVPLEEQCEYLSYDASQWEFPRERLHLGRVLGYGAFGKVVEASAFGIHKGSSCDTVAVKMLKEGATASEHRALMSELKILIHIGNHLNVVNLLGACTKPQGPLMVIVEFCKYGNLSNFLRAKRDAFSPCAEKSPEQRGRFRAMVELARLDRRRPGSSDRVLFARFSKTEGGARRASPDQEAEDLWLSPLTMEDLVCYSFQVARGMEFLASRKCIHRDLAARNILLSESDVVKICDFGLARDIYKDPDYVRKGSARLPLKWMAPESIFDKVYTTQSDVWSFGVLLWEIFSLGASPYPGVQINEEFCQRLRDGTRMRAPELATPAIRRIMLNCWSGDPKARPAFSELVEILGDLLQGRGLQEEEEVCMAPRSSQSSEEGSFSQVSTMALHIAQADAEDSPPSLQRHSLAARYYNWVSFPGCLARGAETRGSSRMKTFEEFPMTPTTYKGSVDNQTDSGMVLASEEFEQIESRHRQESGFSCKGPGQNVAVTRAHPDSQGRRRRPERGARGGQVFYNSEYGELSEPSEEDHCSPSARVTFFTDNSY
VEGFR-2 KDR, sequence (P35968 20-1356): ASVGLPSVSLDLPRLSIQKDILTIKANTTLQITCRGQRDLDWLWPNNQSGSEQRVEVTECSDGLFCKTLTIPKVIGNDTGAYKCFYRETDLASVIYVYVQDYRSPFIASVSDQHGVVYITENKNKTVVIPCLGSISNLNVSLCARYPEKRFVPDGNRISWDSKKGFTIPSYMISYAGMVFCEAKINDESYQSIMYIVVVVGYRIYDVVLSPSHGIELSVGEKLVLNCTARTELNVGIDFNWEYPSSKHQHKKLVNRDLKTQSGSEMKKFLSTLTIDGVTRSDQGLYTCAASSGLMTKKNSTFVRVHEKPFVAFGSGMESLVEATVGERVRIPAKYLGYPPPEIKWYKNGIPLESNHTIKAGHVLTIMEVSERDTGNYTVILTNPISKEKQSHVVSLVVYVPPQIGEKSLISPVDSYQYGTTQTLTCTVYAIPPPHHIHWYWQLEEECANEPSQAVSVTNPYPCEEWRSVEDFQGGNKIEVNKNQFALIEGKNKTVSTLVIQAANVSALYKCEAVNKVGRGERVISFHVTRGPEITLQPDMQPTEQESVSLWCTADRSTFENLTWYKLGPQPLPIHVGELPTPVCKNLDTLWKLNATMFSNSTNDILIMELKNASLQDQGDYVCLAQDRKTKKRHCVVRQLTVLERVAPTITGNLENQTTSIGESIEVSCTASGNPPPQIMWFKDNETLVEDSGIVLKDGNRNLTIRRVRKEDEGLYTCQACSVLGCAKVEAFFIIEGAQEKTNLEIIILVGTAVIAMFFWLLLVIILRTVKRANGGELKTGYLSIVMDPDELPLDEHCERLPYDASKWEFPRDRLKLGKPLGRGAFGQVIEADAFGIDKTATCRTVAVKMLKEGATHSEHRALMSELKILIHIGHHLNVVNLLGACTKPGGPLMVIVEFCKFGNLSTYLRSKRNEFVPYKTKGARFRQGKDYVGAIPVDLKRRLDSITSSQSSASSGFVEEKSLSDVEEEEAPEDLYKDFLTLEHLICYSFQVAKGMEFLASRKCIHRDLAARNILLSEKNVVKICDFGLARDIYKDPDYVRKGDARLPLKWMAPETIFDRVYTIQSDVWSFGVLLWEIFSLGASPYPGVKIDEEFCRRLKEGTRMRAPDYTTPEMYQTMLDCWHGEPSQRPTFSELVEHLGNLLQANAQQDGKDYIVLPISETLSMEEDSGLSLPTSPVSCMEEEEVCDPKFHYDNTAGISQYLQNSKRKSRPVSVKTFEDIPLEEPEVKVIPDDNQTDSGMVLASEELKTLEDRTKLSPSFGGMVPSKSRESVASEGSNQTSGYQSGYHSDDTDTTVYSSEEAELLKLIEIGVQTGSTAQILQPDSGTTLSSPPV

SMILES	IC50 (VEGFR-1 (Flt-1)) [nM]	IC50 (VEGFR-2 KDR) [nM]	Enzymatic Activities IC50 VEGFR-3 (Flt-4) or VGFR3 FLT4 (VEGFR-3 (Flt-4))	Patients in whom dose reductions were required to manage toxicities ([1]; patients studied in RCC) [%]	Serious (grade 3 or 4) adverse events, share of patients ([1]; sunitinib therapy, patients)
Cc1[nH]c(/C=C2\C(=O)Nc3ccc(F)cc32)c(C)c1C(=O)N1CCOCCOCCOCC1 [Formula II]	40	2.5	No Inhibition		
CCN(CC)CCNC(=O)c1c(C)[nH]c(/C=C2\C(=O)Nc3ccc(F)cc32)c1C [Sunitinib, sunitinib]				50	up to 10%

Reference: patent publication US9163010B2, “Indolinone protein kinase inhibitors” (Beta Pharma, Inc., priority 2011, dated 2015)
